# Reference: PMC7270110, “Labeled oxytocin administered via the intranasal route reaches the brain in rhesus macaques” (Nature Communications, 2020)
# Assay: Brain tissue concentration of endogenous OT (d0OT) by LC-MS/MS (terminal experiment)
# Assay type: in vivo, rhesus macaques (Macaca mulatta)
# Design: key: ND: not detected; +: detected but not quantifiable
# Details: for Concentrations of endogenous brain oxytocin (OT): molarity calculated for extracellular fluid volume; for BRAIN OT concentration (endogenous): LC-MS/MS
# Procedure: Monkeys were divided into three groups, each with two monkeys; each group received the following in a terminal study at the 5th week: Group 1 (Monkeys ID# 1 and ID# 5) received 40 IU of d5OT IN, Group 2 received 80 IU of d5OT IN (Monkeys ID# 2 and ID# 4) and Group 3 received 80 IU of d5OT IV (Monkeys ID# 3 and ID# 6). Animals were perfused on average, 140 ± 7 (mean ± SD) min after d5OT administration (range = 135–149 min) (Table 4). Plasma and CSF were drawn just before administration of d5OT, at the midpoint between d5OT administration and perfusion (~60 min post-d5OT administration), and just before perfusion.
# Brain tissue distribution of d5OT, as well as the endogenous concentrations of OT (d0OT), were measured in the following 12 brain regions: cerebellum, brainstem, striatum, amygdala, thalamus, visual cortex, insular cortex, hypothalamus, hippocampus, mPFC (Brodmann areas 32,25,24), dPFC (Brodmann areas 46,9,10), and OFC (Brodmann areas 14,13,12) (Tables 1, 2 and 3).
# Brain tissue sample preparation: Samples (~1.5 mg per sample) were individually weighed and placed into 12 mm × 75 mm glass tubes containing 1.5 ml ice-cold 1 M acetic acid and 30 µl of OT-d10 internal standard. Tissues were homogenized on ice and the resulting homogenates were poured into individual 15 ml polystyrene tubes. The original glass tube was rinsed with 1 ml acetonitrile, and this rinse was added to the appropriate 15 ml polystyrene tube containing the homogenate. After all homogenizations were complete, 3 ml acetonitrile was added to each tube and extraction proceeded, as described for the plasma and CSF samples.
# LC–MS/MS instrument parameters: Microtiter plates were prepared, as described above, and loaded onto a SIL-30ACMP autosampler set at 4 °C (Shimadzu). Forty microliters of each standard, QC or sample were injected onto an ACE Excel 2 C18-PFP 50 mm × 2.1 mm column (Advanced Chromatography Technologies, LTD, Aberdeen, Scotland) at 50 °C using reversed-phase chromatography. Mobile phase A was 0.1% formic acid in water and mobile phase B was 0.1% formic acid in ACN. The LC time gradient was created using two Nexera LC-30AD pumps (Shimadzu) running at 0.5 ml/min. Chromatography for serum and CSF samples began at 10% B and ended at 16% B at 3.6 min. One minute at 60% B was then required to wash the column, and the pumps re-equilibrated at 10% B for an additional 1.7 min (total run time ~6 min). Outside of the 1.55–3.55 min window during which OT eluted, a divert valve sent the LC effluent to waste.
# Heated electrospray […] in positive mode, with scheduled multiple reaction monitoring (MRM) on a Shimadzu LCMS-8050, was used for detection of OT. The interface temperature was 270 °C and heat block temperature was 170 °C. Gas was supplied by a Peak Genius 1051 nitrogen and air generator (Peak Scientific, Inchinnan, UK). Nitrogen gas was used for nebulizing (1 L/min) and drying (8.2 L/min), while air was used for heating (7.8 L/min). A capillary B needle was used in the interface. Needle protrusion was set to 1.25 mm and probe distance was set to 1.0 mm; both were determined empirically. Argon (Airgas, Radnor, PA) was used for the collision-induced dissociation at 330 kPa. The MS/MS conditions for OT were optimized using the automated MRM optimization procedure in LabSolutions software (Shimadzu). We collected two MRM transitions each, for d0OT (1007.40 > 723.40 and 1007.40 > 285.30), d5OT (1012.00 > 723.40 and 1012.00 > 290.35), and d10OT (1017.70 > 723.35 and 1017.70 > 295.40); the first transition listed in each case was used for quantitation, while the second was used as a reference ion. Retention times for d0OT, d5OT, and d10OT were 3.290, 3.270, and 3.253 min, respectively.
# The sensitivities of each assay within the method were determined by the lowest and highest concentration calibrators in the calibration curve. The lower limit of quantitation (LLOQ) for d0OT was 10 pg/ml (4 pg/col); the LLOQ for d5OT was 100 pg/ml (40 pg/col). […]
compound,measurement,setting,value
"CC[C@H](C)[C@@H]1NC(=O)[C@H](Cc2ccc(O)cc2)NC(=O)[C@@H](N)CSSC[C@@H](C(=O)N2CCC[C@H]2C(=O)N[C@@H](CC(C)C)C(=O)NCC(N)=O)NC(=O)[C@H](CC(N)=O)NC(=O)[C@H](CCC(N)=O)NC1=O [OT, oxytocin]",Concentrations of endogenous brain oxytocin (OT),"Amygdala, 40 IN, monkey #5 (F)",2.14e-07 M
same,Concentrations of endogenous brain oxytocin (OT),"Amygdala, 80 IN, monkey #2 (M)",3.2e-08 M
same,Concentrations of endogenous brain oxytocin (OT),"Amygdala, 80 IN, monkey #4 (M)",1.31e-07 M
same,Concentrations of endogenous brain oxytocin (OT),"Amygdala, 80 IV, monkey #3 (F)",2.5e-08 M
same,Concentrations of endogenous brain oxytocin (OT),"Amygdala, 80 IV, monkey #6 (F)",4e-08 M
same,BRAIN OT concentration (endogenous),"Amygdala, after d5OT 40 IU IN, monkey #5 (F), perfused 138 min post-dose",39.11 pg/mg
same,BRAIN OT concentration (endogenous),"Amygdala, after d5OT 80 IU IN, monkey #2 (M), perfused 136 min post-dose",5.82 pg/mg
same,BRAIN OT concentration (endogenous),"Amygdala, after d5OT 80 IU IN, monkey #4 (M), perfused 135 min post-dose",23.97 pg/mg
same,BRAIN OT concentration (endogenous),"Amygdala, after d5OT 80 IU IV, monkey #3 (F), perfused 149 min post-dose",4.63 pg/mg
same,BRAIN OT concentration (endogenous),"Amygdala, after d5OT 80 IU IV, monkey #6 (F), perfused 135 min post-dose",7.26 pg/mg
same,Concentrations of endogenous brain oxytocin (OT),"Brainstem, 40 IN, monkey #1 (F)",4e-08 M
same,Concentrations of endogenous brain oxytocin (OT),"Brainstem, 40 IN, monkey #5 (F)",5.1e-08 M
same,Concentrations of endogenous brain oxytocin (OT),"Brainstem, 80 IN, monkey #2 (M)",2.8e-08 M
same,Concentrations of endogenous brain oxytocin (OT),"Brainstem, 80 IN, monkey #4 (M)",1.9e-08 M
same,Concentrations of endogenous brain oxytocin (OT),"Brainstem, 80 IV, monkey #3 (F)",6e-08 M
same,Concentrations of endogenous brain oxytocin (OT),"Brainstem, 80 IV, monkey #6 (F)",2e-08 M
same,BRAIN OT concentration (endogenous),"Brainstem, after d5OT 40 IU IN, monkey #1 (F), perfused 148 min post-dose",7.27 pg/mg
same,BRAIN OT concentration (endogenous),"Brainstem, after d5OT 40 IU IN, monkey #5 (F), perfused 138 min post-dose",9.34 pg/mg
same,BRAIN OT concentration (endogenous),"Brainstem, after d5OT 80 IU IN, monkey #2 (M), perfused 136 min post-dose",5.11 pg/mg
same,BRAIN OT concentration (endogenous),"Brainstem, after d5OT 80 IU IN, monkey #4 (M), perfused 135 min post-dose",3.55 pg/mg
same,BRAIN OT concentration (endogenous),"Brainstem, after d5OT 80 IU IV, monkey #3 (F), perfused 149 min post-dose",10.93 pg/mg
same,BRAIN OT concentration (endogenous),"Brainstem, after d5OT 80 IU IV, monkey #6 (F), perfused 135 min post-dose",3.58 pg/mg
same,Concentrations of endogenous brain oxytocin (OT),"Cerebellum, 40 IN, monkey #1 (F)",1.2e-08 M
same,Concentrations of endogenous brain oxytocin (OT),"Cerebellum, 40 IN, monkey #5 (F)",<1e-09 M
same,Concentrations of endogenous brain oxytocin (OT),"Cerebellum, 80 IN, monkey #4 (M)",<1e-09 M
same,Concentrations of endogenous brain oxytocin (OT),"Cerebellum, 80 IV, monkey #6 (F)",+
same,BRAIN OT concentration (endogenous),"Cerebellum, after d5OT 40 IU IN, monkey #1 (F), perfused 148 min post-dose",2.16 pg/mg
same,BRAIN OT concentration (endogenous),"Cerebellum, after d5OT 40 IU IN, monkey #5 (F), perfused 138 min post-dose",0.12 pg/mg
same,BRAIN OT concentration (endogenous),"Cerebellum, after d5OT 80 IU IN, monkey #4 (M), perfused 135 min post-dose",0.06 pg/mg
same,BRAIN OT concentration (endogenous),"Cerebellum, after d5OT 80 IU IV, monkey #6 (F), perfused 135 min post-dose",+
same,Concentrations of endogenous brain oxytocin (OT),"Hippocampus, 40 IN, monkey #1 (F)",5e-09 M
same,Concentrations of endogenous brain oxytocin (OT),"Hippocampus, 40 IN, monkey #5 (F)",5e-09 M
same,Concentrations of endogenous brain oxytocin (OT),"Hippocampus, 80 IN, monkey #2 (M)",1.5e-08 M
same,Concentrations of endogenous brain oxytocin (OT),"Hippocampus, 80 IN, monkey #4 (M)",1.5e-08 M
same,Concentrations of endogenous brain oxytocin (OT),"Hippocampus, 80 IV, monkey #3 (F)",5e-09 M
same,Concentrations of endogenous brain oxytocin (OT),"Hippocampus, 80 IV, monkey #6 (F)",5e-09 M
same,BRAIN OT concentration (endogenous),"Hippocampus, after d5OT 40 IU IN, monkey #1 (F), perfused 148 min post-dose",0.99 pg/mg
same,BRAIN OT concentration (endogenous),"Hippocampus, after d5OT 40 IU IN, monkey #5 (F), perfused 138 min post-dose",0.99 pg/mg
same,BRAIN OT concentration (endogenous),"Hippocampus, after d5OT 80 IU IN, monkey #2 (M), perfused 136 min post-dose",2.83 pg/mg
same,BRAIN OT concentration (endogenous),"Hippocampus, after d5OT 80 IU IV, monkey #3 (F), perfused 149 min post-dose",0.99 pg/mg
same,BRAIN OT concentration (endogenous),"Hypothalamus, after d5OT 40 IU IN, monkey #1 (F), perfused 148 min post-dose",2186.74 pg/mg
same,BRAIN OT concentration (endogenous),"Hypothalamus, after d5OT 80 IU IN, monkey #2 (M), perfused 136 min post-dose",943.27 pg/mg
same,BRAIN OT concentration (endogenous),"Hypothalamus, after d5OT 80 IU IV, monkey #3 (F), perfused 149 min post-dose",1491.96 pg/mg
same,Concentrations of endogenous brain oxytocin (OT),"Insular Cortex, 40 IN, monkey #5 (F)",2e-09 M
same,Concentrations of endogenous brain oxytocin (OT),"Insular Cortex, 80 IN, monkey #4 (M)",<1e-09 M
same,Concentrations of endogenous brain oxytocin (OT),"Insular Cortex, 80 IV, monkey #3 (F)",1e-09 M
